Measurements from patent publication US11512053B2, “Arginine methyltransferase inhibitors and uses thereof” (priority 2013, dated 2022).

Molecular target: full-length human PRMT6 (Flag- and His-tagged) (Homo sapiens, UniProt Q96LA8)
Test: PRMT6 Biochemical Assay (3H-SAM Flashplate, peptide substrate)
Conditions: single experiment or average of multiple experiments; read-out: Biochemical IC50 PRMT6
How it was run: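 Radiometric methyltransferase readout: tritium transfer onto a biotin-tagged histone H4 36-50 peptide bearing monomethyl K44 (75 nM), captured on streptavidin Flashplates after stopping with 400 uM unlabeled SAM. Enzyme is baculovirus-expressed Flag-PRMT6-His at 1 nM, given 30 min with compound at room temperature before adding 200 nM 3H-SAM and 250 nM cold SAM (pH 7.6 Bicine, 2% DMSO). Percent inhibition relative to max/min (1 mM SAH) controls, curve-fit to IC50.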

Sequence of full-length human PRMT6 (Flag- and His-tagged) (Q96LA8 with tags, fused parts or gaps): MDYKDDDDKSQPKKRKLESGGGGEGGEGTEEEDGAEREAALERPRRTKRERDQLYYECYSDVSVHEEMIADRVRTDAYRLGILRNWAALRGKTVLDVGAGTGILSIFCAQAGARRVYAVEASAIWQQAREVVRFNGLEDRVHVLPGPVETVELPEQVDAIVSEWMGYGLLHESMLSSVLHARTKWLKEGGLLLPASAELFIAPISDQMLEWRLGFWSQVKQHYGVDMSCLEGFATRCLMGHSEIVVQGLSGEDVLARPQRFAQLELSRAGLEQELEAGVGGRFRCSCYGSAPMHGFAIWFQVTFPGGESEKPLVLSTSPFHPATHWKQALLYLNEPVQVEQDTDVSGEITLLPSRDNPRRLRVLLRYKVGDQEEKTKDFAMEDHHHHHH

IC50: 20 nM
Structure (SMILES): CNCCN(C)Cc1c[nH]nc1C#Cc1ccccc1 [Compound 3]
